By IC50 is commonly meant the point on the concentration scale where inhibition reaches its midpoint. Low values mean greater potency, high ones weaker potency.

Assay [1] concerns the target ROCK2 (Homo sapiens, UniProt O75116). The assay can be described thus: ROCK2 kinase IC50, HTRF KinEASE-STK S2 kit. The assay is classed as biochemical. To be noted: 2 hours at room temperature. Here is the method:
(§1) The kinase IC50 was determined by a commercialized CISBIO kinase detection kit, HTRF KinEASE-STK S2 kit (62ST2PEC). ROCK2 (01-119) employed in the reaction was purchased from Carna Biosciences.
(§2) Before the assay, the following working solutions as needed were formulated with corresponding reagents according to the instruction of the kinase detection kit: 1×kinase buffer, 5×STK-S2 substrate working solution (1.5 μM) and 5×ATP working solution (1.5 μM), 5×ROCK2 kinase working solution, 4×Streptavidin-XL665 working solution, and 4×STK-Ab-Cryptate 2 detection solution. Then the assay was performed according to the following procedure.
(§3) A solution of a compound at a concentration of 10000 nM was prepared with the 1×kinase buffer containing 2.5% DMSO. Gradient dilution of the solution of the compound was performed with the kinase buffer containing DMSO, so as to obtain solutions of a test compound at 9 different concentrations. In addition to wells of test compounds, a positive well (containing all the reagents except the compound) and a negative well (containing all the reagents except the test compound and kinase) were set. Except for the control wells (positive and negative wells), a solution of a test compound (4 μL) was added to each of the reaction wells, and a solution of 2.5% DMSO was added to the control wells. Then the substrate (2 μM, i.e., 2 μL 5×STK-S2 substrate working solution) was added to each of the reaction wells. The 5×ROCK2 kinase working solution (2 μL, containing 1.4 ng ROCK2 kinase) was added to each of the reaction wells except for the negative well, the volume of which was made up with the 1×kinase buffer (2 μL). The 5×ATP working solution (2 μL) was added to each of the reaction wells, and the mixtures were incubated at room temperature for 2 hours. After the kinase reaction was complete, the 4×Streptavidin-XL665 working solution was added to each of the reaction wells, the solutions were mixed, followed by immediate addition of the 4×STK-Ab-Cryptate 2 detection solution (5 μL), and the mixtures were incubated at room temperature for 1 hour. The fluorescence signal was read on ENVISION (Perkinelmer) (excitation wavelength: 320 inn, and emission wavelength: 665 nm and 615 nm). The inhibitory rate in each well was calculated based on the fluorescence intensity value: ER (Emission Ratio)_(fluorescence intensity at 665 nm/fluorescence intensity at 615 nm); inhibitory rate=(ERpositive−ERtest compound)/(ERpositive−ERnegative)*100%. Curves were plotted and fitted to obtain the median inhibitory concentration (IC50) of each teat compound with the PRISM 5.0 software. According to a biological test method similar to the above, the IC50 values of the compounds on ROCK1 were also tested.
On the technique in general: Time-resolved FRET reads energy transfer from a long-lived donor to a nearby acceptor.

Assay [2] concerns the target ROCK1 (Homo sapiens (Human), UniProt Q13464). In words: ROCK1 kinase IC50, biological test method similar to ROCK2 assay. The assay is classed as biochemical. Here is the method:
as §1, §2, §3

Sequence of ROCK1 (Q13464 whole entry, species assumed): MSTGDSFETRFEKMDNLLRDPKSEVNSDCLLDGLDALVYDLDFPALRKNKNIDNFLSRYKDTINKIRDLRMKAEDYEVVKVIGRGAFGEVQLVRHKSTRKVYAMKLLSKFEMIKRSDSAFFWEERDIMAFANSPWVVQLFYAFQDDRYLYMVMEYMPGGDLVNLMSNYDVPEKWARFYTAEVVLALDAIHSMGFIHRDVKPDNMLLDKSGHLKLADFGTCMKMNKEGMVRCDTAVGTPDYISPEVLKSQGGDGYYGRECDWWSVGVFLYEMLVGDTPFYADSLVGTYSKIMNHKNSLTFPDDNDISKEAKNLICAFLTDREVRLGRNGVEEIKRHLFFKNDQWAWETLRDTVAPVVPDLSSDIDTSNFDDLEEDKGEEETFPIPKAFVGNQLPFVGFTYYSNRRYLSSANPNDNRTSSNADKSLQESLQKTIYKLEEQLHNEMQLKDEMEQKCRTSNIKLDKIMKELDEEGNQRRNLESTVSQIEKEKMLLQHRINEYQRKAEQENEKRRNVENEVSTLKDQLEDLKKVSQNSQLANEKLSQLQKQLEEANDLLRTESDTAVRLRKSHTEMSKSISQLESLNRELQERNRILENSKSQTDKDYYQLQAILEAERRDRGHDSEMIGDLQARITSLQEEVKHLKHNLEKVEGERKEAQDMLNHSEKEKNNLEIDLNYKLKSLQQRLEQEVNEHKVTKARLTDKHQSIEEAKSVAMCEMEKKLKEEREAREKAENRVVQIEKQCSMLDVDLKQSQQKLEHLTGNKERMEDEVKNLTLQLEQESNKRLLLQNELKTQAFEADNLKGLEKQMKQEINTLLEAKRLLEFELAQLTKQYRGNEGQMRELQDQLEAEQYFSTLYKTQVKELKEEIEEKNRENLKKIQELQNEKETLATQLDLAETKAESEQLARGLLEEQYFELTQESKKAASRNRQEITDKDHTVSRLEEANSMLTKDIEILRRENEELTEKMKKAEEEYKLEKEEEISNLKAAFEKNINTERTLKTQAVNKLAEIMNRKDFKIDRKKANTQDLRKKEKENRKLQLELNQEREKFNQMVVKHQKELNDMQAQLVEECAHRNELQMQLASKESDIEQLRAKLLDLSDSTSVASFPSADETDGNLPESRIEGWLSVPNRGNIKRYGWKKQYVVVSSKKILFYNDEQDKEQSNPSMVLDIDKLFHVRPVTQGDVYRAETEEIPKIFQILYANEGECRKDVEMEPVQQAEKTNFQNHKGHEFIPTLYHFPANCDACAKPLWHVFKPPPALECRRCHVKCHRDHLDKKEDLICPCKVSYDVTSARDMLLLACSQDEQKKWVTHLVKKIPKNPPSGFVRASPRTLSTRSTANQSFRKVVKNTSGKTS
Sequence of ROCK2 (O75116 whole entry, looked up): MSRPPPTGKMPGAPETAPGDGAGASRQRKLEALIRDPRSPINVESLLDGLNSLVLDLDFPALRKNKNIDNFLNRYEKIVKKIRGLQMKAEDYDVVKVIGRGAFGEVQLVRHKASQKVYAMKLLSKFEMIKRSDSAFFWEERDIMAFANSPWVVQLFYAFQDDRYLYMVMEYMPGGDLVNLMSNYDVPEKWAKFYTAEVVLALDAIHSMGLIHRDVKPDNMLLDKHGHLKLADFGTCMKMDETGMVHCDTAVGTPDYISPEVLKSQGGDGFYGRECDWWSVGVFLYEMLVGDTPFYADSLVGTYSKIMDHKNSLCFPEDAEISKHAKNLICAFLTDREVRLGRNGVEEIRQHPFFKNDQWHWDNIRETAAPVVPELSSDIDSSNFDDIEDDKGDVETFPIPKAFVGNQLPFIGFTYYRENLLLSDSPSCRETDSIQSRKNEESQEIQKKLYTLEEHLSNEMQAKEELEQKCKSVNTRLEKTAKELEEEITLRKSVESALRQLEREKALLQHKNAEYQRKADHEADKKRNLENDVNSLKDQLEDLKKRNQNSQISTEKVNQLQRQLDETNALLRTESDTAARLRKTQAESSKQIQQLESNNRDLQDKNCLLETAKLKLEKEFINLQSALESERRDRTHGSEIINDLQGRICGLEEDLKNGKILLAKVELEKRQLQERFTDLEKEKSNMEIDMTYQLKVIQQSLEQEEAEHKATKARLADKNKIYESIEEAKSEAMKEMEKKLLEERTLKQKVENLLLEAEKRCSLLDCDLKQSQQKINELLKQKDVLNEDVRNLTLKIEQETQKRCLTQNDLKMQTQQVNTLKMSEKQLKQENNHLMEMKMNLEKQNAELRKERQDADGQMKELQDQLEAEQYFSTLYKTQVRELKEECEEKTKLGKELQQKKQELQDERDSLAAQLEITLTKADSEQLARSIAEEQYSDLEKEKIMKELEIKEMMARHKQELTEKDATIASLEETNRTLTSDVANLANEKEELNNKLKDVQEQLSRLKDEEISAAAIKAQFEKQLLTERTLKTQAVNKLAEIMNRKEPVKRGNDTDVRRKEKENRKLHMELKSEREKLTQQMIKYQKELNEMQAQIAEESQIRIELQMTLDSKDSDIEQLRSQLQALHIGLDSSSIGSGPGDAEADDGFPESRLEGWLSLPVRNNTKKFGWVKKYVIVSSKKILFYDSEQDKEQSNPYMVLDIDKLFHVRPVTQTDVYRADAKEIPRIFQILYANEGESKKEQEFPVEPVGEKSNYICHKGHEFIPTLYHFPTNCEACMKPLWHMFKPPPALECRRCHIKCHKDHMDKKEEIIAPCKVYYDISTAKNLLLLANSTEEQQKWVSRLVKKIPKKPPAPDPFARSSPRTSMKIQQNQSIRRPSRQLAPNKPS

In the case of `O=C1NCCc2cc(Nc3nc(-c4ccc5c(c4)CN(C(=O)OC4CC(F)(F)C4)C5)ncc3F)ccc21` [C14, 3,3-difluoro-cyclobutyl 5-(5-fluoro-4-((1-oxo-1,2,3,4-tetrahydro-isoquinolin-6-yl)amino)pyrimidin-2-yl) isoindoline-2-carboxylate], the IC50 in assay [1] is 28 nM; in assay [2] it was more than 10000 nM.

For the molecule `CC(CC(=O)N1Cc2ccc(-c3nc(Nc4ccc5c(=O)[nH]ccc5c4)c4ccccc4n3)cc2C1)C(F)(F)F` (stereo not drawn) [C50], the IC50 in assay [1] was 280 nM; in assay [2] it was more than 10000 nM.

With `O=C(N1Cc2ccc(-c3ncc(F)c(Nc4ccc5c(=O)[nH]ccc5c4)n3)cc2C1)C(F)(F)F` [C62], the IC50 in assay [1] was 139 nM; in assay [2] it was more than 10000 nM.

Regarding `O=C(c1ccc2c(c1)CN(c1nccc(Nc3ccc4c(=O)[nH]ccc4c3)n1)C2)N1CC(F)(F)C1` [C1, 6-((2-(5-(3,3-difluoroazetidine-1-carbonyl)isoindolin-2-yl)pyrimidin-4-yl)amino)isoquinolin-1(2H)-one], the IC50 in assay [1] is 129 nM; in assay [2] it was more than 10000 nM.

Regarding `O=C(CCC(F)(F)F)N1Cc2ccc(-c3ncc(F)c(Nc4ccc5c(=O)[nH]ccc5c4)n3)cc2C1` [C63, 6-((5-fluoro-2-(2-(4,4,4-trifluoro-butanoyl)isoindolin-5-yl)pyrimidin-4-yl)amino) isoquinolin-1(2H)-one], the results for the IC50 in assay [1] and in assay [2] were 24 nM and more than 10000 nM, respectively.

With `O=C1NCCc2cc(Nc3nc(-c4cc5c(s4)CCN(C(=O)OC(C(F)(F)F)C(F)(F)F)C5)ncc3F)ccc21` [C61, 1,1,1,3,3,3-hexafluoropropan-2-yl 2-(5-fluoro-4-((1-oxo-1,2,3,4-tetrahydroisoquinolin-6-yl)amino)pyrimidin-2-yl)-6,7-dihydrothieno[3,2-c]pyridine-5(4H)-carboxylate], the values for the concentration for half-maximal inhibition (IC50) in assay [1] and in assay [2] were 170 nM and more than 10000 nM, respectively.

Take `CC(OC(=O)N1CCc2cc(-c3nccc(Nc4ccc5c(c4)CCNC5=O)n3)ccc2C1)C(F)(F)F` (stereo not drawn) [C40, 1,1,1-trifluoro-propan-2-yl 6-(4-((1-oxo-1,2,3,4-tetrahydro-isoquinolin-6-yl)amino)pyrimidin-2-yl)-3,4-dihydro-isoquinolin-2(1H)-carboxylate]: the IC50 was 270 nM in assay [1] and more than 10000 nM in assay [2].

Take `O=C(CCC(F)(F)F)N1CCc2sc(-c3ncc(F)c(Nc4ccc5c(=O)[nH]ccc5c4)n3)cc2C1` [C68, 6-((5-fluoro-2-(5-(4,4,4-trifluorobutanoyl)-4,5,6,7-tetrahydrothieno[3,2-c]pyridin-2-yl)pyrimidin-4-yl)amino)isoquinolin-1(2H)-one]: the IC50 in assay [1] was 9 nM; in assay [2], more than 10000 nM.

Take `CC(OC(=O)N1CCc2cc(-c3ncc(F)c(Nc4ccc5c(=O)[nH]ccc5c4)n3)ccc2C1)C(F)(F)F` (stereo not drawn) [C39, 1,1,1-trifluoro-propan-2-yl 6-(5-fluoro-4-((1-oxo-1,2-dihydro-isoquinolin-6-yl)amino)pyrimidin-2-yl)-3,4-dihydro-isoquinolin-2(1H)-carboxylate]: the IC50 in assay [1] was 102 nM; in assay [2], more than 10000 nM.

Regarding `O=C(C1CC(F)(F)C1)N1Cc2ccc(-c3ncc(F)c(Nc4ccc5c(=O)[nH]ncc5c4)n3)cc2C1` [C12, 6-((2-(2-(3,3-difluoroo-cyclobutane-1-carbonyl)isoindolin-5-yl)-5-fluoro-pyrimidin-4-yl)amino) phthalazin-1(2H)-one], the IC50 in assay [1] is 17 nM; in assay [2], more than 10000 nM.

In the case of `COCn1c(C(=O)N2CC(F)(F)C2)cc2ccc(-c3ncc(F)c(Nc4ccc5c(=O)[nH]ccc5c4)n3)cc21` [C20, 6-((2-(2-(3,3-difluoro-azetidine-1-carbonyl)-1-(methoxy-methyl)-1H-indol-6-yl)-5-fluoro-pyrimidin-4-yl)amino) isoquinolin-1(2H)-one], the IC50 in assay [1] was 238 nM; in assay [2] it was more than 10000 nM.

Turning to `O=C(OC1CC(F)(F)C1)N1Cc2ccc(-c3ncc(F)c(Nc4ccc5c(=O)[nH]ccc5c4)n3)cc2C1` [C10, 3,3-difluorocyclobutyl 5-(5-fluoro-4-((1-oxo-1,2-dihydroisoquinolin-6-yl)amino)pyrimidin-2-yl)isoindoline-2-carboxylate], the IC50 in assay [1] is 11 nM; in assay [2] it was more than 10000 nM.

Take `O=C(C1CC(F)(F)C1)N1Cc2ccc(-c3ncc(F)c(Nc4ccc5c(=O)[nH]cnc5c4)n3)cc2C1` [C6, 7-((2-(2-(3,3-difluoroo-cyclobutane-1-carbonyl)isoindolin-5-yl)-5-fluoro-pyrimidin-4-yl)amino) quinazolin-4(3H)-one]: the values for the IC50 in assay [1] and in assay [2] were 76 nM and more than 10000 nM, respectively.

Consider `O=C1NCCc2cc(Nc3nc(-c4cc5c(s4)CCN(C(=O)CCC(F)(F)F)C5)ncc3F)ccc21` [C69, 6-((5-fluoro-2-(5-(4,4,4-trifluorobutanoyl)-4,5,6,7-tetrahydrothieno[3,2-c]pyridin-2-yl)pyrimidin-4-yl)amino)-3,4-dihydroisoquinolin-1(2H)-one], for which the results for the IC50 in assay [1] and in assay [2] were 45 nM and more than 10000 nM, respectively.

As to `O=C1NCc2cc(Nc3nc(-c4ccc5c(c4)CN(C(=O)C4CC(F)(F)C4)C5)ncc3F)ccc21` [C3, 5-((2-(2-(3,3-difluoroo-cyclobutane-1-carbonyl)isoindolin-5-yl)-5-fluoro-pyrimidin-4-yl)amino) isoindolin-1-one], the IC50 was 287 nM in assay [1] and more than 10000 nM in assay [2].

Take `CC(C)(C)OC(=O)N1Cc2ccc(-c3ncc(F)c(Nc4ccc5c(=O)[nH]ccc5c4)n3)cc2C1` [C11, tert-butyl 5-(5-fluoro-4-((1-oxo-1,2-dihydro-isoquinolin-6-yl)amino)pyrimiclin-2-yl) isoindoline-2-carboxylate]: the IC50 was 34 nM in assay [1] and more than 10000 nM in assay [2].

For the molecule `CC(OC(=O)N1CCc2sc(-c3ncc(F)c(Nc4ccc5c(=O)[nH]ncc5c4)n3)cc2C1)C(F)(F)F` (stereo not drawn) [C60, 1,1,1-trifluoropropan-2-yl 2-(5-fluoro-4-((1-oxo-1,2-dihydrophthalazin-6-yl)amino)pyrimidin-2-yl)-6,7-dihydrothieno[3,2-c]pyridine-5(4H)-carboxylate], the figures for the IC50 in assay [1] and in assay [2] were 13 nM and more than 10000 nM, respectively.

Take `O=C(c1cc2ccc(-c3ncc(F)c(Nc4ccc5c(=O)[nH]ccc5c4)n3)cc2[nH]1)N1CC(F)(F)C1` [C9, 6-((2-(2-(3,3-difluoroazetidine-1-carbonyl)-1H-indol-6-yl)-5-fluoropyrimidin-4-yl)amino)isoquinolin-1(2H)-one]: the results for the IC50 in assay [1] and in assay [2] were 4 nM and more than 10000 nM, respectively.

For `CC(C)(C)CC(=O)N1CCc2sc(-c3ncc(F)c(Nc4ccc5c(c4)CCNC5=O)n3)cc2C1` [C53, 6-((2-(5-(3,3-dimethylbutanoyl)-4,5,6,7-tetrahydrothieno [3,2-c]pyridin-2-yl)-5-fluoropyrimidin-4-yl)amino)-3,4-dihydroisoquinolin-1(2H)-one], the IC50 in assay [1] was 135 nM; in assay [2], more than 10000 nM.

Consider `O=C(C1CCC(F)(F)CC1)N1Cc2ccc(-c3ncc(F)c(Nc4ccc5c(=O)[nH]ccc5c4)n3)cc2C1` [C13, 6-((2-(2-(4,4-difluorocyclohexane-1-carbonyl)isoindolin-5-yl)-5-fluoropyrimidin-4-yl)amino)isoquinolin-1(2H)-one], for which the IC50 in assay [1] is 38 nM; in assay [2], more than 10000 nM.

For `CC(CC(=O)N1Cc2ccc(-c3ncc(F)c(Nc4ccc5c(=O)[nH]ccc5c4)n3)cc2C1)C(F)(F)F` (stereo not drawn) [C37, 6-((5-fluoro-2-(2-(4,4,4-trifluoro-3-methylbutanoyl)isoindolin-5-yl)pyrimidin-4-yl)amino)isoquinolin-1(2H)-one], the figures for the IC50 in assay [1] and in assay [2] were 117 nM and more than 10000 nM, respectively.
